Results published in US12516016B2, “GPX4 inhibitors, pharmaceutical compositions thereof, and their use for treating GPX4-mediated diseases” (EUBULUS BIOTHERAPEUTICS (HONG KONG) LIMITED, priority 2020, dated 2026).
pEC50: −log10 of the molar value.

system: hepatocellular carcinoma cell line Hub-7; assay: Cell proliferation assay (CELL-TITER GLO cell viability); type: cell-based; conditions: 24 h, Hub-7 cells, 24 h incubation, read-out: Inhibition of Cell Proliferation EC50
Protocol: The activity of a test compound was determined in a cell proliferation assay using the hepatocellular carcinoma cell line […]. Cells (4,000 cells per well) were seeded in a 96-well tissue culture plate. After incubated overnight, a test compound was added at predetermined concentrations, starting with 10 μM and followed by 3-fold serial dilution. After the cells were incubated for 24 h, cell viability was determined using a CELL-TITER GLO® assay. The CELL-TITER GLO® reagent (50 μL) was added to each well and the luminescence was measured by a multimode microplate reader after a brief period of shaking. EC50 values were determined for the test compound. The results are summarized in Table 1, wherein A represents a value no greater than 100 nM, B represents a value greater than 100 nM but no greater than 500 nM, C represents a value greater than 500 nM but no greater than 2 μM, D represents a value greater than 2 μM but no greater than 10 μM; and E represents a value greater than 10 μM.

| SMILES | pEC50 |
| --- | --- |
| C#CC(=O)N(c1cccc(Cl)c1)C(C(=O)NCc1ccccc1)c1ccc(F)cc1 (stereo not drawn) [A87, N-(2-(Benzylamino)-1-(4-fluorophenyl)-2-oxoethyl)-N-(3-chlorophenyl)-propiolamide] | ≥ 7.00 |
| C#CC(=O)N(c1ccc2scnc2c1)C(C(=O)NCc1ccccc1)c1ccccc1 (stereo not drawn) [A88, N-(Benzo[d]thiazol-5-yl)-N-(2-(benzylamino)-2-oxo-1-phenylethyl)-propiolamide] | ≥ 7.00 |
| C#CC(=O)N(c1cccc2c1CCC2=O)C(C(=O)NCc1ccccc1)c1ccccc1 (stereo not drawn) [A89, N-(2-(Benzylamino)-2-oxo-1-phenylethyl)-N-(1-oxo-2,3-dihydro-1H-inden-4-yl)propiolamide] | ≥ 7.00 |
| C#CC(=O)N(c1cccc(Cl)c1)C(C(=O)NCc1ccccc1)c1ccccc1F (stereo not drawn) [A90, N-(2-(Benzylamino)-1-(2-fluorophenyl)-2-oxoethyl)-N-(3-chlorophenyl)-propiolamide] | ≥ 7.00 |
| C#CC(=O)N(c1cc(Cl)ccc1I)C(C(=O)NCc1ccccc1)c1ccccc1 (stereo not drawn) [A91, N-(2-(Benzylamino)-2-oxo-1-phenylethyl)-N-(5-chloro-2-iodophenyl)-propiolamide] | ≥ 7.00 |
| C#CC(=O)N(c1cccc(S(C)(=O)=O)c1)C(C(=O)NCc1ccccc1)c1ccccc1 (stereo not drawn) [A92, N-(2-(Benzylamino)-2-oxo-1-phenylethyl)-N-(3-(methylsulfonyl)-phenyl)-propiolamide] | 6.30 to 7.00 |
| C#CC(=O)N(c1ccc(OC)c(Cl)c1)C(C(=O)NCc1ccccc1)c1ccccc1 (stereo not drawn) [A93, N-(2-(Benzylamino)-2-oxo-1-phenylethyl)-N-(3-chloro-4-methoxyphenyl)-propiolamide] | ≥ 7.00 |
| C#CC(=O)N(c1ccc2nsnc2c1)C(C(=O)NCc1ccccc1)c1ccccc1 (stereo not drawn) [A94, N-(Benzo[c][1,2,5]thiadiazol-5-yl)-N-(2-(benzylamino)-2-oxo-1-phenylethyl)-propiolamide] | ≥ 7.00 |
| C#CC(=O)N(c1cccc(Cl)c1)C(C(=O)NCc1ccccc1)c1cccc(CCO)c1 (stereo not drawn) [A95, N-(2-(Benzylamino)-1-(3-(2-hydroxyethyl)phenyl)-2-oxoethyl)-N-(3-chloro-phenyl)propiolamide] | 6.30 to 7.00 |
| C#CC(=O)N(c1ccc2c(c1)OCO2)C(C(=O)NCc1ccccc1)c1ccccc1 (stereo not drawn) [A96, N-(Benzo[d][1,3]dioxol-5-yl)-N-(2-(benzylamino)-2-oxo-1-phenylethyl)-propiolamide] | ≥ 7.00 |
| C#CC(=O)N(c1cccc2c1OCO2)C(C(=O)NCc1ccccc1)c1ccccc1 (stereo not drawn) [A97, N-(Benzo[d][1,3]dioxol-4-yl)-N-(2-(benzylamino)-2-oxo-1-phenylethyl)-propiolamide] | 6.30 to 7.00 |
| C#CC(=O)N(c1ccc2ncsc2c1)C(C(=O)NCc1ccccc1)c1ccccc1 (stereo not drawn) [A98, N-(Benzo[d]thiazol-6-yl)-N-(2-(benzylamino)-2-oxo-1-phenylethyl)-propiolamide] | 6.30 to 7.00 |
| C#CC(=O)N(c1ccc2c(c1)OC(F)(F)O2)C(C(=O)NCc1ccccc1)c1ccccc1 (stereo not drawn) [A99, N-(2-(Benzylamino)-2-oxo-1-phenylethyl)-N-(2,2-difluorobenzo[d][1,3]dioxol-5-yl)propiolamide] | ≥ 7.00 |
| C#CC(=O)N(c1cccc(C#N)c1)C(C(=O)NCc1ccccc1)c1ccccc1 (stereo not drawn) [A100, N-(2-(Benzylamino)-2-oxo-1-phenylethyl)-N-(3-cyanophenyl)propiolamide] | ≥ 7.00 |
| C#CC(=O)N(c1cccc(Cl)c1)C1(C(=O)NCc2ccccc2)CCCCC1 [A101, N-Benzyl-1-(N-(3-chlorophenyl)propiolamido)cyclohexanecarboxamide] | ≥ 7.00 |
| C#CC(=O)N(c1ccn(C)c(=O)c1)C(C(=O)NCc1ccccc1)c1ccccc1 (stereo not drawn) [A102, N-(2-(Benzylamino)-2-oxo-1-phenylethyl)-N-(1-methyl-2-oxo-1,2-dihydropyridin-4-yl)propiolamide] | 5.00 to 5.70 |
| C#CC(=O)N(c1cccc(Cl)c1)C1(C(=O)NCc2ccccc2)CCC(F)(F)CC1 [A103, N-Benzyl-1-(N-(3-chlorophenyl)propiolamido)-4,4-difluorocyclohexane-carboxamide] | ≥ 7.00 |
| C#CC(=O)N(c1ccc2cnn(C)c2c1)C(C(=O)NCc1ccccc1)c1ccccc1 (stereo not drawn) [A104, N-(2-(Benzylamino)-2-oxo-1-phenylethyl)-N-(1-methyl-1H-indazol-6-yl)-propiolamide] | ≥ 7.00 |
| C#CC(=O)N(c1ccc2nncn2c1)C(C(=O)NCc1ccccc1)c1ccccc1 (stereo not drawn) [A105, N-([1,2,4]Triazolo[4,3-a]pyridin-6-yl)-N-(2-(benzylamino)-2-oxo-1-phenylethyl)-propiolamide] | 6.30 to 7.00 |
| C#CC(=O)N(c1cccc2nonc12)C(C(=O)NCc1ccccc1)c1ccccc1 (stereo not drawn) [A106, N-(Benzo[c][1,2,5]oxadiazol-4-yl)-N-(2-(benzylamino)-2-oxo-1-phenylethyl)-propiolamide] | 6.30 to 7.00 |

| SMILES | pEC50 |
| --- | --- |
| C#CC(=O)N(c1ccc2c(cnn2C)c1)C(C(=O)NCc1ccccc1)c1ccccc1 (stereo not drawn) [A107, N-(2-(Benzylamino)-2-oxo-1-phenylethyl)-N-(1-methyl-1H-indazol-5-yl)-propiolamide] | ≥ 7.00 |
| C#CC(=O)N(c1ccc(Cl)c(Cl)c1)C1(C(=O)NCc2ccccc2)CCOCC1 [A108, N-Benzyl-4-(N-(3,4-dichlorophenyl)propiolamido)tetrahydro-2H-pyran-4-carboxamide] | ≥ 7.00 |
| C#CC(=O)N(c1ccc(Cl)c(Cl)c1)C1(C(=O)NCc2ccccc2)CCCCC1 [A109, N-Benzyl-1-(N-(3,4-dichlorophenyl)propiolamido)cyclohexanecarboxamide] | 6.30 to 7.00 |
| C#CC(=O)N(c1cccc(Cl)c1)[C@]1(C(=O)NCc2ccccc2)CC[C@H](O)CC1 [A110, (1S,4S)—N-Benzyl-1-(N-(3-chlorophenyl)propiolamido)-4-hydroxycyclohexane-carboxamide] | 6.30 to 7.00 |
| C#CC(=O)N(c1cccc(Cl)c1)C(C(=O)NCc1ccc(C#N)cc1)c1ccccc1 (stereo not drawn) [A114, N-(3-chlorophenyl)-N-(2-((4-cyanobenzyl)amino)-2-oxo-1-phenylethyl)propiolamide] | ≥ 7.00 |
| C#CC(=O)N(c1cccc(Cl)c1)C(C(=O)NCc1ccc(F)cc1)c1ccccc1 (stereo not drawn) [A115, N-(3-Chlorophenyl)-N-(2-((4-fluorobenzyl)amino)-2-oxo-1-phenylethyl)-propiolamide] | ≥ 7.00 |
| C#CC(=O)N(c1cccc(Cl)c1)C(C(=O)NCc1ccccc1F)c1ccccc1 (stereo not drawn) [A116, N-(3-Chlorophenyl)-N-(2-((2-fluorobenzyl)amino)-2-oxo-1-phenylethyl)-propiolamide] | 6.30 to 7.00 |
| CC#CC(=O)N(c1cccc(Cl)c1)C(C(=O)NCc1ccccc1)c1ccccc1 (stereo not drawn) [A117, N-(2-(Benzylamino)-2-oxo-1-phenylethyl)-N-(3-chlorophenyl)but-2-ynamide] | < 5.00 |
| C#CC(=O)N(c1ccc(Cl)cc1)C(C(=O)NC(C)(C)C)c1cccc(N)c1 (stereo not drawn) [A119] | ≥ 7.00 |
| C#CC(=O)N(c1cccc(C(=O)OC)c1)C(C(=O)NCc1ccccc1)c1cccc(N)c1 (stereo not drawn) [A122] | ≥ 7.00 |
| C#CC(=O)N(c1cccc(Cl)c1F)C(C(=O)NCc1ccccc1)c1ccc(N)cc1 (stereo not drawn) [A123] | ≥ 7.00 |
| C#CC(=O)N(c1cccc(Cl)c1)C(C(=O)NCc1ccccc1)c1ccncc1 (stereo not drawn) [A124] | 5.70 to 6.30 |
| CC#CC(=O)N(c1ccc2c(cnn2C)c1)C1(C(=O)NCc2ccccc2)CCOCC1 [A125, N-Benzyl-4-(N-(1-methyl-1H-indazol-5-yl)but-2-ynamido)tetrahydro-2H-pyran-4-carboxamide] | < 5.00 |
| CC#CC(=O)N(c1ccc2c(cnn2C)c1)C1(C(=O)NCc2ccccc2)CCCOC1 (stereo not drawn) [A126, N-Benzyl-3-(N-(1-methyl-1H-indazol-5-yl)but-2-ynamido)tetrahydro-2H-pyran-3-carboxamide] | 5.00 to 5.70 |
| CC#CC(=O)N(c1ccc2c(cnn2C)c1)C1(C(=O)NCc2ccccc2)CCCC(C(=O)OC)C1 (stereo not drawn) [A127, Methyl3-(benzylcarbamoyl)-3-(N-(1-methyl-1H-indazol-5-yl)but-2-ynamido)-cyclohexane-1-carboxylate] | < 5.00 |
| O=C(C#CCO)N(c1cccc(Cl)c1)C1(C(=O)NCc2ccccc2)CCOCC1 [A129, N-Benzyl-4-(N-(3-chlorophenyl)-4-hydroxybut-2-ynamido)tetrahydro-2H-pyran-4-carboxamide] | < 5.00 |
| O=C(C#CCO)N(c1cc(Cl)ccc1Cl)C1(C(=O)NCc2ccccc2)CCOCC1 [A130, N-Benzyl-4-(N-(2,5-dichlorophenyl)-4-hydroxybut-2-ynamido)tetrahydro-2H-pyran-4-carboxamide] | < 5.00 |
| Cn1ncc2cc(N(C(=O)C#CCO)C3(C(=O)NCc4ccccc4)CCOCC3)ccc21 [A131, N-Benzyl-4-(4-hydroxy-N-(1-methyl-1H-indazol-5-yl)but-2-ynamido)tetrahydro-2H-pyran-4-carboxamide] | < 5.00 |
| CC#CC(=O)N(c1ccc(Cl)c(Cl)c1)C(C(=O)NCc1ccccc1)c1ccccc1 (stereo not drawn) [A132, N-(2-(Benzylamino)-2-oxo-1-phenylethyl)-N-(3,4-dichlorophenyl)but-2-ynamide] | < 5.00 |
| CC#CC(=O)N(c1cncc(Cl)c1)C(C(=O)NCc1ccccc1)c1ccccc1 (stereo not drawn) [A133, N-(2-(Benzylamino)-2-oxo-1-phenylethyl)-N-(5-chloropyridin-3-yl)but-2-ynamide] | < 5.00 |

same assay, conditions: Hub-7 cells, 24 h incubation, read-out: Inhibition of Cell Proliferation EC50

| SMILES | pEC50 |
| --- | --- |
| C#CC(=O)N(c1cccc(Cl)c1)[C@]1(C(=O)NCc2ccccc2)CC[C@@H](O)CC1 [A111, (1R,4R)—N-Benzyl-1-(N-(3-chlorophenyl)propiolamido)-4-hydroxycyclohexane-carboxamide] | 6.30 to 7.00 |
| COc1ccc(N(C(=O)C#CCO)C(C(=O)NCCc2ccccc2)c2cccs2)cc1Cl (stereo not drawn) [A118] | 5.00 to 5.70 |
